How the values were obtained:
[1] = system: OVCAR5 ovarian cancer cells; assay: Cell viability assay (MTT/resazurin), OVCAR5; format: cell-based; details: Homo sapiens, OVCAR-5, read-out: Antiproliferative Activity, GI50
Source text: (§1) Cancer cell lines derived from leukemia (MV4-11 and U937), breast (MCF7 (Rb-positive) and MDA-MB-231(Rb-negative)), and ovarian (A2780, OVCAR5, OAW28, OV90, Cov318, and Cov504) cancers, and glioblastoma (U87, T98G and U251) were acquired from the cell bank at Drug Discovery and Development, University of South Australia, and cultured according to the American Type Culture Collection (ATCC) recommendation in Roswell Park Memorial Institute (RPMI)-1640, Dulbecco’s Modified Eagle’s Medium (DMEM), or Minimum Essential Media (MEM), with 10% fetal bovine serum (Sigma-Aldrich, Castle Hill, NSW, Australia) within a humidified incubator at 37 °C in the presence of 5% CO2.
(§2) The MTT (Life Technologies, Mulgrave, VIC, Australia) and resazurin (Sigma-Aldrich) assays were used to determine the antiproliferative activities of the compounds initially at 1 µM against the cancer cell lines stated above.

[2] = system: OV90 ovarian cancer cells; assay: Cell viability assay (MTT/resazurin), OV90; format: cell-based; details: Homo sapiens, OV-90, read-out: Antiproliferative Activity, GI50
Source text: as §1, §2

[3] = system: T98G glioblastoma cells; assay: Cell viability assay (MTT/resazurin), T98G; format: cell-based; details: Homo sapiens, read-out: Antiproliferative Activity, GI50
Source text: as §1, §2

[4] = system: MCF7 breast cancer cells; assay: Cell viability assay (MTT/resazurin), MCF7; format: cell-based; details: Homo sapiens, read-out: Antiproliferative Activity, GI50
Source text: as §1, §2

[5] = system: A2780 cells; assay: Colony formation (crystal violet), A2780; format: cell-based; details: A2780, 10 days; 15 at 0.5 and 2 µM, CYC065 at 0.5 µM
Experimental: (§3) Briefly, ovarian cancer cells (i.e., A2780, OVCAR5, and OV90) seeded in six-well plates were adhered for 6 h and treated with 15. The medium that contained the compound was then changed every 72 h. Ten days after treatment, the cells were washed with PBS, fixed, and stained with crystal violet staining solution (0.05% crystal violet, 1% formaldehyde, 1% PBS, and 1% ethanol), and colonies were quantified using ImageJ software (National Institute of Health, Maryland, USA), with data presented as percentages of the control cells.

[6] = molecular target: CDK1/cyclin B (CDK1B) (Homo sapiens, UniProt P06493); assay: ADP-Glo kinase assay, CDK1/cyclin B; format: biochemical; details: apparent Ki from IC50, ADP-Glo
Chain of CDK1/cyclin B (CDK1B) (P06493 whole entry): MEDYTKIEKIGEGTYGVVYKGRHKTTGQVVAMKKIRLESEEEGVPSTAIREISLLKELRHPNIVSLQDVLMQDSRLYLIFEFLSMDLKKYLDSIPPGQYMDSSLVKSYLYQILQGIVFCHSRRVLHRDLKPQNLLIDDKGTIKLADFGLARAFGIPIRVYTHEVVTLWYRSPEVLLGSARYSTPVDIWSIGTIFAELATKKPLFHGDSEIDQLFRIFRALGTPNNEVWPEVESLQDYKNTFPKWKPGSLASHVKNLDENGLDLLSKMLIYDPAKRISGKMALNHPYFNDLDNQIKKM
Chain of CDK1/cyclin B (CDK1B) (P14635 whole entry partner): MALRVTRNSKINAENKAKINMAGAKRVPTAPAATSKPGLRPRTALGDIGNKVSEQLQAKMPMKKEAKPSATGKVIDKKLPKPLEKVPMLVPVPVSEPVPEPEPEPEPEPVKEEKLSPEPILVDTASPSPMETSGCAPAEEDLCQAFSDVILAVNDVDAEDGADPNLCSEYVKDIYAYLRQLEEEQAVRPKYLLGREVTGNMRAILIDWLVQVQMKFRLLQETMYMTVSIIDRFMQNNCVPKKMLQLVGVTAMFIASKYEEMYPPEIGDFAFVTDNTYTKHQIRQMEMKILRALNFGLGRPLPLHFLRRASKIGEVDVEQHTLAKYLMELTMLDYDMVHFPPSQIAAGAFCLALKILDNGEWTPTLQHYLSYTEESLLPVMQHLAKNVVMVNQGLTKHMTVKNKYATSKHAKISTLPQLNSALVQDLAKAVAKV
Experimental: The luminescent ADP-Glo™ assay, which measures the amount of ADP formed in a kinase reaction as described previously, was used to determine the kinase inhibition profile of the compounds. […] Ki values were calculated from their corresponding IC50 values (the concentrations of inhibitors that inhibit the kinase activity by 50%) and the Michaelis–Menten constant (Km) of ATP for each kinase using the Cheng–Prusoff equation as previously stated. In brief, 1 μL of each concentration of the test compounds was added to the respective wells, and to it were added 1 μL of the kinases and their respective substrates, diluted to the desired concentration in kinase reaction buffer ([…] tris base pH 7.5, 20 mM MgCl2, 0.4 µM dithiothreitol, and 0.1 mg/mL bovine serum albumin), and the pH was adjusted by adding 1 μL of a two-fold diluted kinase reaction buffer. To initiate the kinase activity, 1 μL of ATP solution (the concentration varies depending on the type of kinase under investigation) was added to each well, and the mixture was incubated at room temperature (20 to 22 °C) for 30–60 min depending on the kinase being tested. The reaction was then halted, 5 μL of the ADP-Glo reagent was added to each well (removing any unreacted ATP), and it was incubated at room temperature for 40 min. Then, to each well, 10 μL of the kinase detection reagent containing luciferin was added, which was incubated once more at room temperature in the dark for 30 min and the luminescence was measured by an EnVision® multi-label plate reader with an integration time of 1.5 s per well. Positive controls (the wells without the inhibitor) and negative or blank controls (the wells without the inhibitor and the enzyme, but with 1 × kinase reaction buffer) were also determined in 2.5% DMSO.
The percentage of kinase inhibition was determined using the following equation: % Residual kinase activity=Luminescence in the presence of inhibitor−Luminescence of blank control/Luminescence in the absence of inhibitor−Luminescence of blank control×100%%kinase inhbition=100%−%Residual kinase activity
Km is defined as the concentration of ATP or the substrate required to produce 50% of the maximal reaction rate in the kinase reaction. Therefore, since we used the concentration of ATP and the substrate at their Km values, Ki simply equals IC50/2 assuming these inhibitors are ATP-competitive based on the Cheng–Prusoff equation: Ki = IC50/(1 + ([ATP]/Km(ATP))) where [ATP] is the ATP concentration used for the IC50 determination and Km(ATP) for each kinase was determined experimentally.

[7] = system: Cov504 ovarian cancer cells; assay: Cell viability assay (MTT/resazurin), Cov504; format: cell-based; details: read-out: Antiproliferative Activity, GI50
Source text: as §1, §2

[8] = system: OVCAR5 cells; assay: Colony formation (crystal violet), OVCAR5; format: cell-based; details: OVCAR5, 10 days; 15 at 0.5 and 2 µM, CYC065 at 0.5 µM
Experimental: as §3

[9] = system: OVCAR5 cells; assay: Annexin V/PI apoptosis assay, OVCAR5; format: cell-based; details: 48 h
Experimental: (§4) Annexin V-fluorescein isothiocyanate (FITC) apoptosis detection kit I (consisting of a ten-time stock solution of binding buffer, FITC–annexin V, and PI staining solution) was used to determine the effect of the compounds on cancer cell survival as previously reported. Briefly, six-well plates (Sigma-Aldrich, NSW, Australia) were seeded with about 1–2 × 10^5 cells/well in 2 mL growth medium, incubated at 37 °C and 5% CO2 overnight, treated with various concentrations of the test compounds, and incubated for 48 h. The wells were collected by trypsinization, transferred into FACS tubes, washed twice with 1 × PBS, and centrifuged at 300× g for 5 min. The pellets were then suspended in 100 µL of 1 × binding buffer and incubated in the dark with 3 µL of PI and 3 µL of FITC-conjugated annexin V solutions for 15 min. Finally, 200 µL of binding buffer was added to each sample and analyzed by the CytoFLEX cytometer. The extent of apoptotic cell death was quantified as the sum of the percentages of early apoptotic cells (annexin V-positive and PI-negative) and late apoptotic cells (both annexin–V- and PI-positive) and presented graphically as a contour diagram relative to the untreated control.

[10] = system: A2780 cells; assay: Annexin V/PI apoptosis assay, A2780; format: cell-based; details: 48 h
Experimental: as §4

[11] = system: panel of 13 cancer cell lines; assay: Antiproliferative activity, cancer cell line panel; format: cell-based; details: all cancer cell lines tested; read-out: GI50 range over the cancer cell line panel
Source text: as §1, §2

[12] = system: U87 glioblastoma cells; assay: Cell viability assay (MTT/resazurin), U87; format: cell-based; details: read-out: Antiproliferative Activity, GI50
Source text: as §1, §2

## Cn1cc(-c2nc(Nc3cn[nH]c3)ncc2Cl)cn1 [Compound 15, 5-Chloro-4-(1-methyl-1H-pyrazol-4-yl)-N-(1H-pyrazol-4-yl)pyrimidin-2-amine]
[1]
  GI50: 0.15 µM
[2]
  GI50: 0.39 µM
[3]
  GI50: 0.38 µM
[4]
  GI50: 0.342 µM
[5]
  effect on colony formation: inhibited
[6]
  Ki: 0.025 µM
[7]
  GI50: 0.54 µM
[8]
  effect on colony formation: inhibited
[9]; Homo sapiens, OVCAR-5, OVCAR5, 0.5 µM, read-out: Q1-LL, viable cells
  viability at 0.5 µM: 67.4%
[9]; Homo sapiens, OVCAR-5, OVCAR5, 2 µM, read-out: Q1-LL, viable cells
  viability at 2 µM: 57.8%
[9]; OVCAR5, 0.5 µM
  apoptosis (annexin V positive, early + late): 30%
[9]; OVCAR5, 2 µM
  apoptosis (annexin V positive, early + late): 38%
[10]; A2780, 0.5 µM
  apoptosis (annexin V positive, early + late): 47%
[10]; A2780, 2 µM
  apoptosis (annexin V positive, early + late): 49%
[10]; Homo sapiens, A2780, 0.5 µM, read-out: Q1-LL, viable cells
  viability at 0.5 µM: 52.7%
[10]; Homo sapiens, A2780, 2 µM, read-out: Q1-LL, viable cells
  viability at 2 µM: 50.5%
[11]
  GI50: 0.127 to 0.56 µM
[12]
  GI50: 0.56 µM

— publication PMC10096391, “Discovery of N,4-Di(1H-pyrazol-4-yl)pyrimidin-2-amine-Derived CDK2 Inhibitors as Potential Anticancer Agents: Design, Synthesis, and Evaluation” (Molecules, 2023)
